pEC50, pKi: −log10 of the molar value. Where two headings read alike, the source gives them in different places.

The subject of one data set is CVB-3. The data set is described as follows: Anticoxsackieviral HI-HeLa Cell Culture Assay (XTT dye reduction). Type of data set: cell-based, Coxsackie strain B-3 (CVB-3). To be noted: HI-HeLa cells infected with CVB-3, m.o.i. 0.08, one day. On the procedure: (§1) Specifically, HI-HeLa cells were infected wtih […] at a multiplicity of infection (m.o.i.) of 0.08 or mock-infected with medium only. Infected or mock-infected cells were resuspended at 8×10^5 cells per mL and incubated with appropriate concentrations of compound. One day later, XTT/PMS were added to test plates and the amount of formazan produced was quantified spectrophotometrically at 450/650 nm. […] The therapeutic index (TI) was calculated by dividing the CC50 by the EC50.
(§2) The Coxsackie strain B-3 (CVB-3) was purchased from American Type Culture Collection (ATCC). Virus stocks were propgated and antiviral assays were performed in Hi-HeLa cells (ATCC). Cells were grown in Minimal Essential Medium with 10% fetal bovine serum.
In general terms: Tetrazolium dyes change colour on reduction, which living cells bring about.

In data set [1] the target is T1, Recombinant Rhinovirus 3C protease (RVP) serotype-14 (Human rhinovirus 14, UniProt P03303).
T1 construct: Recombinant Rhinovirus 3C proteases from serotypes 14, 16, 2 or 89; made in house
The data set is described as follows: Inhibition of Rhinovirus Protease (fluorescence resonance energy transfer assay), serotype 14. Type of data set: biochemical, human rhinovirus (HRV). The settings on record: for kobs/I: progress curves in enzyme start experiments; for kinact/KI: pH 7.6, read-out: kobs/I.

The subject of data set [2] is HI-HeLa cells. The data set is described as follows: Cytotoxicity in mock-infected HI-HeLa cells (anticoxsackieviral assay, XTT). In kind it is cell-based. How it is done:
as §1, with “The ability of compounds to protect calls against CVB-3 infection was measured by the XTT dye reduction method, which is described in Weislow, O. S., R. Kiser, D. L. Fine, J. Bader, R. H. Shoemaker, and M. R. Boyd, 1989, J. Natl. Cancer Inst. 81:577-586, which is incorporated herein by reference. Specifically,” for “Specifically,”
as §2

The next data set deals with HRV-14. The data set is described as follows: Antirhinoviral HI-HeLa Cell Culture Assay (Cell Protection Assay, XTT dye reduction). Type of data set: cell-based, human rhinovirus (HRV) serotype-14. To be noted: HI-HeLa cells infected with HRV-14, m.o.i. 0.13, two days, XTT, read-out: EC50. In outline: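 HI-HeLa cells infected with HRV-14 at m.o.i. 0.13 or mock-infected, then incubated with compounds for two days. Cell protection read by XTT/PMS formazan at 450/650 nm; therapeutic index = CC50/EC50.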

Data set [3] deals with HI-HeLa cells. Nature of the data set: Cytotoxicity in mock-infected HI-HeLa cells (antirhinoviral assay, XTT). In kind it is cell-based.
Data set [4] relates to Human Rhinovirus-serotype 10 (HRV-10). The data set is described as follows: Normal Human Bronchial Epithelial Cell Assay (MTT). To be noted: normal human bronchial cells, HRV-10 at m.o.i. 10, 3-4 days at 34° C., read-out: ED50 (the source's name). In kind it is cell-based. On the procedure:
Normal human bronchial cells were obtained from cadavers and cultured. The cells were plated at 2×10^4 per well in a […] plate. They were allowed to adhere and grow for 24 hours in 200 μL of serum-free bronchial/tracheal epithelial cell growth medium at 37° C. with 5% CO2. Human Rhinovirus-serotype 10 (HRV-10) was purchased from American Type Culture Collection (ATCC). To start the assay, the supernatant was removed, and HRV-10 at an m.o.i. of 10 (virus particles/cell) was added to each well along with the appropriate amount of compound of formula I or II. The plate was then incubated at 34° C. After 3 hours the supernatant was removed, and 200 μL of media was added along with the same concentration of compound as used in the beginning of the assay. The plates were incubated for 3-4 days at 34° C. To determine the amount of cell growth, an MTT assay (0.5 mgs/mL), as described in Mosmann, T. J. J. Immunol. Methods 1983, 65, 55-63, which is incorporated herein by reference, was performed on the cells, and the plate was read at an optical density of 540 nm. The compounds were tested against control compound Pirodavir, obtained from Janssen Pharmaceuticals. The EC50 was measured as described above for the HI-HeLa Cell Culture Assay.

The nature of data set [5]: Cytotoxicity in mock-infected HI-HeLa cells (anticoxsackieviral assay, XTT). Type of data set: cell-based. To be noted: human; mock-infected HI-HeLa cells; one day; XTT. How it is done: as §1, with “The ability of compounds to protect calls against CVB-3 infection was measured by the XTT dye reduction method, which is described in Weislow, O. S., R. Kiser, D. L. Fine, J. Bader, R. H. Shoemaker, and M. R. Boyd, 1989, J. Natl. Cancer Inst. 81:577-586, which is incorporated herein by reference. Specifically,” for “Specifically,”
as §2

Data set [6] can be described thus: Cytotoxicity in mock-infected HI-HeLa cells (antirhinoviral assay, XTT). In kind it is cell-based. The settings on record: human.
The mark [7] stands for this setting: mock-infected HI-HeLa cells, one day, XTT, read-out: CC50.
Setting [8] is: mock-infected HI-HeLa cells, two days, XTT, read-out: CC50.
[9] abbreviates: RVP serotype-14, 10 minute preincubation, substrate start, read-out: INHIB (Ki).

T1 sequence (P03303 1538-1719): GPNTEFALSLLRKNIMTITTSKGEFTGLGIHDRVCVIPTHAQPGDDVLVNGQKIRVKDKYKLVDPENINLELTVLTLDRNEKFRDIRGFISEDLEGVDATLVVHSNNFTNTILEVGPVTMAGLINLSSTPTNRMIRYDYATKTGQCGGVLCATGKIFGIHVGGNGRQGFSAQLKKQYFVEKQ

For orientation: CC50 means the concentration at which the toxic effect on the cells reaches its halfway point. As for `CC(C)C[C@H](NC(=O)OCc1ccccc1)C(=O)N[C@@H](Cc1ccccc1)C(=O)N[C@H](/C=C/C(=O)c1ccccc1)CCC(N)=O` [Compound 24, 1-Phenyl-3-(CBZ-L-Leu-L-Phe-L-Gln)-E-Propenone], the pEC50 is 5.00 in the data set on CVB-3 and 5.40 in the data set on HRV-14. For the same compound, the kobs/I in data set [1] (RVP serotype-14) was 500,000 M-1 sec-1. Also, the 50% cytotoxic concentration (CC50) amounted to 10 µM with HI-HeLa cells [2] (setting [7]) and 16 µM with HI-HeLa cells [3] (setting [8]).

By pKi is commonly meant the negative decadic logarithm of the Ki, by convention in mol/L. Consider `CCOC(=O)/C=C/[C@H](CCC(N)=O)NC(=O)[C@H](Cc1ccc(F)cc1)NC(=O)c1cc2c(OC)cccc2[nH]1` [Compound 27], for which the pEC50 is 4.70 with CVB-3, 5.46 in the data set with HRV-14 and 7.15 in [4]. Also, in data set [1] (setting [9]), the pKi is 4.70. The kobs/I in data set [1] (RVP serotype-14) is given as 3,000 M-1 sec-1. Besides, the figures for the CC50 with HI-HeLa cells [2] (setting [7]) and with HI-HeLa cells [3] (setting [8]) were 103 µM and 160 µM, respectively.

With `COC(=O)/C=C/[C@H](CCC(N)=O)NC(=O)[C@H](Cc1ccccc1)NC(=O)[C@H](CC(C)C)NC(=O)OCc1ccccc1` [Compound 11, Methyl-3-(CBZ-L-Leu-L-Phe-L-Gln)-E-Propenoate], the figures for the pEC50 (in the data set with CVB-3; with HRV-14; in [4]) were 5.05, 5.89 and 9.15, respectively. In addition, the pKi in [1] (setting [9]) is 4.55. The kobs/I in [1] (RVP serotype-14) is 20,000 M-1 sec-1. In addition, the half-maximal cytotoxic concentration (CC50) in the data set with HI-HeLa cells [2] (setting [7]) and in the data set with HI-HeLa cells [3] was greater than 320 µM throughout.

For the compound `CCOC(=O)c1ccc(OCCC2CCN(c3ccc(C)nn3)CC2)cc1` [Pirodavir, reference compound], the pEC50 in the data set on CVB-3 (24 h) was less than 4.00; in the data set with HRV-14 (Rhinovirus B, HRV14, 48 h), 7.52; in [4] (Epithelial cell), 8.12. In [5], this compound had a CC50 at 1 day greater than 100 µM. The compound further yielded a 50% cytotoxic concentration (CC50) at 2 days in data set [6] greater than 10 µM.

As to `CCOC(=O)/C=C/[C@H](CC[S+](C)[O-])NC(=O)[C@H](Cc1ccccc1)NC(=O)[C@H](CC(C)C)NC(=O)OCc1ccccc1` (stereo partly drawn) [Compound 12, Ethyl-3-[CBZ-L-Leu-L-Phe-L-Met(sulfoxide)]-E-propenoate], in data set [1], the negative-log Ki (pKi) is 5.37 and the kinact/KI was 2200 M⁻¹ s⁻¹. Moreover, the pEC50 with HRV-14 (Rhinovirus B, HRV14, 48 h) is 5.80. The CC50 at 2 days in data set [6] (setting [8]) is greater than 100 µM. The pEC50 in data set [4] (Epithelial cell) was 8.40.

`Cc1cc(CCCCCOc2c(Cl)cc(C3=NCCO3)cc2Cl)on1` [WIN 54954, reference compound]: the pEC50 in the data set on CVB-3 was less than 4.00; with HRV-14 it was 5.67. In addition, the 50% cytotoxic concentration (CC50) is greater than 100 µM with HI-HeLa cells [2] (setting [7]) and greater than 63 µM in the data set with HI-HeLa cells [3] (setting [8]).

Usually melting point stands for the temperature of the solid-liquid transition. `CCOC(=O)/C(F)=C\[C@H](CCC(N)=O)NC(=O)[C@H](Cc1ccccc1)NC(=O)[C@H](CC(C)C)NC(=O)OCc1ccccc1` [Compound 8, Ethyl-2-Fluoro-3-(CBZ-L-Leu-L-Phe-L-Gln)-E-Propenoate]: the melting point lay in the range of 210 to 211 °C. Moreover, in [1], the pKi is 4.44 and the kinact/KI is 61 M⁻¹ s⁻¹. Also, the pEC50 in the data set on HRV-14 (Rhinovirus B, HRV14, 48 h) was less than 3.49. The CC50 at 2 days in data set [6] (setting [8]) was greater than 320 µM.

As to `CON(C)C(=O)/C=C/[C@H](CCC(N)=O)NC(=O)[C@H](Cc1ccccc1)NC(=O)[C@H](CC(C)C)NC(=O)OCc1ccccc1` [Compound 37], the pEC50 in the data set on CVB-3 (24 h) is 4.75. In data set [1], the pKi is 4.73 and the kinact/KI came to 5900 M⁻¹ s⁻¹. This compound registered a 50% cytotoxic concentration (CC50) at 1 day in data set [5] greater than 100 µM. Besides, the pEC50 in the data set with HRV-14 (Rhinovirus B, HRV14, 48 h) was 5.40. In addition, the half-maximal cytotoxic concentration (CC50) at 2 days in [6] (setting [8]) was greater than 100 µM.

Turning to `CC(C)C[C@H](NC(=O)OCc1ccccc1)C(=O)N[C@@H](Cc1ccccc1)C(=O)N[C@H](/C=C/C(=O)N1CCCC1)CCC(N)=O` [Compound 21, 1-Pyrrolidin-1-yl-3-(CBZ-L-Leu-L-Phe-L-Gln)-E-Propenone], the pEC50 in the data set with CVB-3 (24 h) is 3.80; with HRV-14 (Rhinovirus B, HRV14, 48 h), 4.65. The pKi in [1] was 5.00. Also, in [1], the kinact/KI turned out to be 2100 M⁻¹ s⁻¹. Further, the CC50 at 1 day in data set [5] was greater than 320 µM. In [6] (setting [8]), the CC50 at 2 days is greater than 100 µM.

Turning to `CC(C)C[C@H](NC(=O)OCc1ccccc1)C(=O)N[C@@H](Cc1ccccc1)C(=O)N[C@H](/C=C/C(=O)N1CC=CC1)CCC(N)=O` [Compound 41], the pEC50 is less than 4.00 in the data set with CVB-3 and 4.25 in the data set with HRV-14. Moreover, the kobs/I in [1] (RVP serotype-14) is recorded as 8,464 M-1 sec-1. The results for the CC50 with HI-HeLa cells [2] and in the data set on HI-HeLa cells [3] were greater than 100 µM and 56 µM, respectively.

As for `CC(C)C[C@H](NC(=O)OCc1ccccc1)C(=O)N[C@@H](Cc1ccccc1)C(=O)N[C@H](/C=C/C(=O)N(C)C)CCC(N)=O` [Compound 22, N,N-Dimethyl-3-(CBZ-L-Leu-L-Phe-L-Gln)-E-Propenamide], the melting point was 174 to 175 °C (dec.). In addition, in [1], the negative-log Ki (pKi) is 5.37 and the kinact/KI turned out to be 1300 M⁻¹ s⁻¹. Also, the pEC50 in the data set with HRV-14 (Rhinovirus B, HRV14, 48 h) was 4.25. For the same compound, in data set [6] (setting [8]), the CC50 at 2 days worked out at 251 µM.

For the compound `CC(C)C[C@H](NC(=O)OCc1ccccc1)C(=O)N[C@@H](Cc1ccccc1)C(=O)N[C@H](/C=C/c1ccccn1)CCC(N)=O` [Compound 23], the pEC50 with CVB-3 and in the data set on HRV-14 was less than 4.00 throughout. Further, the negative logarithm of the Ki (pKi) in [1] (setting [9]) was 3.75. Also, in [1] (RVP serotype-14), the kobs/I was determined as 120 M⁻¹ s⁻¹. Also, the CC50 in the data set with HI-HeLa cells [2] (setting [7]) and in the data set with HI-HeLa cells [3] (setting [8]) was greater than 100 µM each time.

Turning to `CC(C)C[C@H](NC(=O)OCc1ccccc1)C(=O)N[C@@H](Cc1ccccc1)C(=O)N[C@H](/C=C/C(=O)N1CCc2ccccc21)CCC(N)=O` [Compound 85], the negative-log Ki (pKi) in data set [1] was 5.52. Besides, the kinact/KI in data set [1] is 6500 M⁻¹ s⁻¹. The pEC50 in the data set with HRV-14 (Rhinovirus B, HRV14, 48 h) was 4.80; in [4] (Epithelial cell), 8.30. Also, in data set [6] (setting [8]), the half-maximal cytotoxic concentration (CC50) at 2 days was greater than 320 µM.

The values above are taken from US6362166B1, “Antipicornaviral compounds and methods for their use and preparation” (Agouron Pharmaceuticals, Inc., priority 1996, dated 2002).
